Assay results as given in patent US8193369B2, “Benzimidazole cannabinoid agonists” (Janssen Pharmaceutica NV, priority 2007, dated 2012).

Molecular target: T1, human CB2 (hCB2) receptor (Homo sapiens, UniProt P34972)
T1 construct: expressed in transfected cells; host or cells: CHO-K1
Assay: Inhibition of forskolin-activated cAMP production upon activation of human CB2 receptor (HTRF)
Assay type: cell-based
Conditions: CHO-K1 cells stably transfected with hCB2; 15 μM forskolin; pEC50=-log(EC50); relative to WIN55212-2
Protocol: D. Pharmacological Examples D.1 Inhibition of cAMP in Response to Activation of the Human CB2 Receptors
Functional activity of the test compounds was assessed by measuring their potency to inhibit forskolin-activated cAMP production upon activation of human CB2 (hCB2) receptor through homogenous time resolved fluorescence (HTRF) assays.
CHO-K1 cells stably transfected with hCB2 were grown up to 80-90% confluence in T175 Falcon flasks in DMEM/NUT MIX F-12 culture medium complemented with 2% Solution A (5.10^6 IU/l penicillin G, 5 g/l streptomycin sulphate, 5.5 g/l pyruvate, 14.6 g/l L-glutamine, 1M NaOH) and 10% foetal calf serum. Before the experiments, medium was removed, cells were washed with PBS/EDTA (140 mM NaCl, 1 mM Na2-EDTA, 8 mM Na2HPO4.2H2O, 8.5 mM KH2PO4, 2.7 mM KCl, 21 mM glucose), resuspended in stimulation buffer (HBSS 1×, IBMX 1 mM, Hepes 5 mM, MgCl2 10 mM, BSA 0.1%, pH 7.4). Cells were diluted to a concentration of 10^6 cells/ml for hCB2 experiments. Assays were performed using the cAMP Dynamic HTRF kit (CIS bio international, France) according to the recommendations of the manufacturer.
For CB2, each well of a 384 flat bottom black polystyrene assay plate (Costar) was filled with 10 μl stimulation buffer containing 15 μM forskolin and either test compound (in 3% DMSO), 3% DMSO or 10 μM Win55212-2 (in 3% DMSO). Then, 20 μl of the diluted hCB2-CHO-K1 cells was added (20,000 cells/well). After 30 minutes incubation in dark at room temperature, 10 μl cAMP-XL665 and 10 μl anti-cAMP cryptate (both at a final dilution of 1/100) was added to the cells.
After equilibration of the reaction mixtures for 1 to 24 hours in dark at room temperature, fluorescence was measured at 665 nm and 620 nm using a Discovery microplate fluorescence counter (Perkin Elmer), and the signal ratio of 665 nm/620 nm was calculated. The signal ratios of the test compounds were expressed relative to the signal ratios of the DMSO control (maximal signal ratio, no inhibition of cAMP) and WIN55212-2 for hCB2, respectively (minimal signal ratio, maximal inhibition of cAMP). From the dose response curves generated for each test compound, the dose at which 50% of the maximal inhibition of cAMP level is observed (EC50, expressed in the Table as pEC50=−log (EC50) values) and the level of inhibition reached with 10 μM of the test compound compared to WIN55212-2 (for hCB2) was calculated.

T1 sequence (P34972 whole entry): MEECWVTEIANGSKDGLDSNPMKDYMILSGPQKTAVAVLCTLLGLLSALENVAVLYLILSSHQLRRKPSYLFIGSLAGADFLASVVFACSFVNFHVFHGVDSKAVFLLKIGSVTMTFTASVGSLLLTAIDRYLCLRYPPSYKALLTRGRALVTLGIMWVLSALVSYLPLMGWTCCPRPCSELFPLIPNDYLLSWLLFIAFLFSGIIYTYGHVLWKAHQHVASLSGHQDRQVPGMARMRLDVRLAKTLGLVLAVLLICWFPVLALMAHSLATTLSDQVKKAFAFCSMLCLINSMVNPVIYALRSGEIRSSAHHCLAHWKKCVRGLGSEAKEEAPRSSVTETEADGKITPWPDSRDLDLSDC

Row | Structure (SMILES) | EC50 | CB2 pEC50
1 | CC(=O)N1CCC(Cn2c(C(C)(C)C)nc3cc(S(=O)(=O)Cc4ccccc4)ccc32)CC1 [Co. No. 73] | 2.34 nM | –
2 | CCS(=O)(=O)c1ccc2c(c1)nc(C(C)(C)C)n2CC1CCN(C(C)=O)CC1 [compound 1] | 8.51 nM | –
3 | CC(=O)N1CCC(Cn2c(C(C)(C)C)nc3cc(S(=O)(=O)CCCC(F)(F)F)ccc32)CC1 [compound 3] | 15.5 nM | –
4 | CC(=O)N1CCC(Cn2c(C(C)(C)C)nc3cc(S(=O)(=O)CCCC#N)ccc32)CC1 [compound 10] | 21.9 nM | –
5 | COc1ccc(CSc2ccc3c(c2)nc(C(C)(C)C)n3CC2CCN(C(C)=O)CC2)cc1 [compound 11] | 20.4 nM | –
6 | COc1ccc(CS(=O)(=O)c2ccc3c(c2)nc(C(C)(C)C)n3CC2CCN(C(C)=O)CC2)cc1 [compound 12] | 158 nM | –
7 | CC(=O)N1CCC(Cn2c(C(C)(C)C)nc3cc(SCCCO)ccc32)CC1 [compound 13] | 8.71 nM | –
8 | CC(=O)N1CCC(Cn2c(C(C)(C)C)nc3cc(SCCC#N)ccc32)CC1 [compound 15] | 10 nM | –
9 | CC(=O)N1CCC(Cn2c(C(C)(C)C)nc3cc(SCc4ccc(F)cc4)ccc32)CC1 [compound 17] | 0.794 nM | –
10 | CC(=O)N1CCC(Cn2c(C(C)(C)C)nc3cc(Sc4ccc(C#N)cc4)ccc32)CC1 [compound 18] | 6.31 nM | –
11 | CC(=O)N1CCC(Cn2c(C(C)(C)C)nc3cc(S(=O)(=O)CCCO)ccc32)CC1 [compound 19] | – | 6.84
12 | COCCS(=O)(=O)c1ccc2c(c1)nc(C(C)(C)C)n2CC1CCN(C(C)=O)CC1 [compound 20] | – | 7.59
13 | CC(C)(C)c1nc2cc(SCCCO)ccc2n1CC1CCN(C=O)CC1 [compound 21] | 5.37 nM | –
14 | COCCSc1ccc2c(c1)nc(C(C)(C)C)n2CC1CCN(C=O)CC1 [compound 22] | 7.08 nM | –
15 | CC(=O)N1CCC(Cn2c(C(C)(C)C)nc3cc(S(=O)(=O)c4ccc(C#N)cc4)ccc32)CC1 [compound 23] | 3.72 nM | –
16 | CC(C)S(=O)(=O)c1ccc2c(c1)nc(C(C)(C)C)n2CC1CCS(=O)(=O)CC1 [compound 30] | 50.1 nM | –
17 | CC(=O)N1CCC(Cn2c(C(C)(C)C)nc3cc(SC4CCCC4)ccc32)CC1 [compound 32] | 1.29 nM | –
18 | CC(=O)N1CCC(Cn2c(C(C)(C)C)nc3cc(Sc4ccncc4)ccc32)CC1 [compound 33] | 4.47 nM | –
19 | CC(=O)N1CCC(Cn2c(C(C)(C)C)nc3cc(S(=O)(=O)C4CCCC4)ccc32)CC1 [compound 35] | – | 8.49
20 | CC(C)(C)c1nc2cc(SCC3CC3)ccc2n1CC1CCN(C=O)CC1 [compound 37] | 1.32 nM | –
21 | CC(=O)N1CCC(Cn2c(C(C)(C)C)nc3cc(S(=O)(=O)C(C)C#N)ccc32)CC1 (centres unmarked) [compound 39] | 7.08 nM | –

Row | Structure (SMILES) | EC50 | CB2 pEC50
22 | CC(=O)N1CCC(Cn2c(C(C)(C)C)nc3cc(SCC4CCC4)ccc32)CC1 [compound 41] | 1.17 nM | –
23 | CC(=O)N1CCC(Cn2c(C(C)(C)C)nc3cc(S(=O)(=O)C(C)(C)C#N)ccc32)CC1 [compound 42] | 5.5 nM | –
24 | CCS(=O)(=O)c1ccc2c(c1)nc(C(C)C)n2CC1CCN(C(C)=O)CC1 [compound 47] | 955 nM | –
25 | CC(=O)N1CCC(Cn2c(C(C)(C)C)nc3cc(Sc4ccccn4)ccc32)CC1 [compound 50] | 7.76 nM | –
26 | CCC(CC)Sc1ccc2c(c1)nc(C(C)(C)C)n2CC1CCN(C(C)=O)CC1 [compound 51] | 0.794 nM | –
27 | CC(=O)N1CCC(Cn2c(C(C)(C)C)nc3cc(SCCc4ccc(F)cc4)ccc32)CC1 [compound 52] | 3.98 nM | –
28 | CC(=O)N1CCC(Cn2c(C(C)(C)C)nc3cc(Sc4cccnc4)ccc32)CC1 [compound 54] | 2.29 nM | –
29 | CC(=O)N1CCC(Cn2c(C(C)(C)C)nc3cc(S(=O)(=O)C(C)(C)c4ccccc4)ccc32)CC1 [compound 55] | 93.3 nM | –
30 | CC(=O)N1CCC(Cn2c(C(C)(C)C)nc3cc(S(=O)(=O)CCc4ccc(F)cc4)ccc32)CC1 [compound 56] | 3.39 nM | –
31 | CC(=O)N1CCC(Cn2c(C(C)(C)C)nc3cc(Sc4c(Cl)cccc4Cl)ccc32)CC1 [compound 57] | 1.58 nM | –
32 | CC(=O)N1CCC(Cn2c(C(C)(C)C)nc3cc(Sc4ccc(F)cc4)ccc32)CC1 [compound 58] | 8.51 nM | –
33 | CCC(CC)S(=O)(=O)c1ccc2c(c1)nc(C(C)(C)C)n2CC1CCN(C(C)=O)CC1 [compound 61] | 2.51 nM | –
34 | CC(=O)N1CCC(Cn2c(C(C)(C)C)nc3cc(S(=O)(=O)c4cccnc4)ccc32)CC1 [compound 62] | 5.25 nM | –
35 | CC(=O)N1CCC(Cn2c(C(C)(C)C)nc3cc(S(=O)(=O)c4ccc[n+]([O-])c4)ccc32)CC1 [compound 63] | 15.5 nM | –
36 | CC(=O)N1CCC(Cn2c(C(C)(C)C)nc3cc(S(=O)(=O)C(C)C)ccc32)CC1 [compound 64] | 12.9 nM | –
37 | CCCC(CCC)Sc1ccc2c(c1)nc(C(C)(C)C)n2CC1CCN(C(C)=O)CC1 [compound 65] | 1.74 nM | –
38 | CC(=O)N1CCC(Cn2c(C(C)(C)C)nc3cc(Sc4cccs4)ccc32)CC1 [compound 66] | 2.24 nM | –
39 | CC(=O)N1CCC(Cn2c(C(C)(C)C)nc3cc(S(=O)(=O)Cc4ccc([N+](=O)[O-])cc4)ccc32)CC1 [compound 69] | 5.89 nM | –
40 | CC(=O)N1CCC(Cn2c(C(C)(C)C)nc3cc(Sc4ccccc4Cl)ccc32)CC1 [compound 70] | 0.0871 nM | –
41 | CC(=O)N1CCC(Cn2c(C(C)(C)C)nc3cc(SCc4ccccc4)ccc32)CC1 [compound 72] | 12.9 nM | –
42 | CC(=O)Nc1ccc(CS(=O)(=O)c2ccc3c(c2)nc(C(C)(C)C)n3CC2CCN(C(C)=O)CC2)cc1 [compound 79] | 5.89 nM | –

Row | Structure (SMILES) | EC50 | CB2 pEC50
43 | CC(=O)N1CCC(Cn2c(C(C)(C)C)nc3cc(S(=O)(=O)Cc4ccc(N(C)C(C)=O)cc4)ccc32)CC1 [compound 80] | ~46.8 nM | –
44 | COCCCOc1cccc(S(=O)(=O)c2ccc3c(c2)nc(C(C)(C)C)n3CC2CCN(C(C)=O)CC2)c1 [compound 86] | 5.37 nM | –
45 | CC(=O)N1CCC(Cn2c(C(C)(C)C)nc3cc(Sc4ccc(C(F)(F)F)cc4)ccc32)CC1 [compound 87] | ~10 nM | –
46 | CC(=O)N1CCC(Cn2c(C(C)(C)C)nc3cc(Sc4cccc(Cl)c4)ccc32)CC1 [compound 89] | ~0.11 nM | –
47 | CC(=O)N1CCC(Cn2c(C(C)(C)C)nc3cc(Sc4cccc(C(F)(F)F)c4)ccc32)CC1 [compound 91] | ~0.832 nM | –
48 | CC(=O)N1CCC(Cn2c(C(C)(C)C)nc3cc(S(=O)(=O)c4cccc(C(F)(F)F)c4)ccc32)CC1 [compound 92] | 4.07 nM | –
49 | CC(=O)N1CCC(Cn2c(C(C)(C)C)nc3cc(Sc4ccccc4C#N)ccc32)CC1 [compound 93] | ~0.24 nM | –
50 | CC(=O)N1CCC(Cn2c(C(C)(C)C)nc3cc(S(=O)(=O)c4ccccc4C#N)ccc32)CC1 [compound 94] | ~3.31 nM | –
51 | CC(=O)N1CCC(Cn2c(C(C)(C)C)nc3cc(Sc4cccc(OCCCC#N)c4)ccc32)CC1 [compound 95] | ~2.69 nM | –
52 | CC(=O)N1CCC(Cn2c(C(C)(C)C)nc3cc(S(=O)(=O)c4cccc(OCCCC#N)c4)ccc32)CC1 [compound 96] | 3.55 nM | –
53 | CC(=O)N1CCC(Cn2c(C(C)(C)C)nc3cc(Sc4cccc(N(C)C)c4)ccc32)CC1 [compound 97] | 4.79 nM | –
54 | CC(=O)N1CCC(Cn2c(C(C)(C)C)nc3cc(S(=O)(=O)c4cccc(N(C)C)c4)ccc32)CC1 [compound 98] | 4.57 nM | –
55 | CC(=O)N1CCC(Cn2c(C(C)(C)C)nc3cc(S(=O)(=O)c4cccc(OC(C)C)c4)ccc32)CC1 [compound 100] | 2.34 nM | –
56 | COc1cccc(OC)c1Sc1ccc2c(c1)nc(C(C)(C)C)n2CC1CCN(C(C)=O)CC1 [compound 101] | ~0.513 nM | –
57 | COc1cccc(OC)c1S(=O)(=O)c1ccc2c(c1)nc(C(C)(C)C)n2CC1CCN(C(C)=O)CC1 [compound 102] | ~3.47 nM | –
58 | CC(=O)N1CCC(Cn2c(C(C)(C)C)nc3cc(S(=O)(=O)c4ccoc4)ccc32)CC1 [compound 103] | ~3.8 nM | –
59 | CC(=O)N1CCC(Cn2c(C(C)(C)C)nc3cc(S(=O)(=O)c4ccc(OC(F)(F)F)cc4)ccc32)CC1 [compound 104] | ~23.4 nM | –
60 | CC(=O)N1CCC(Cn2c(C(C)(C)C)nc3cc(S(=O)(=O)c4ccc(F)c(C#N)c4)ccc32)CC1 [compound 105] | ~1.29 nM | –
61 | COc1ccc(S(=O)(=O)c2ccc3c(c2)nc(C(C)(C)C)n3CC2CCN(C(C)=O)CC2)c(OC)c1 [compound 106] | ~22.9 nM | –
62 | CC(=O)N1CCC(Cn2c(C(C)(C)C)nc3cc(S(=O)(=O)c4ccc(C(F)(F)F)cc4Cl)ccc32)CC1 [compound 107] | ~7.41 nM | –
